Reference: patent US6911194B2, “Skin preparation” (PhotoCure ASA, priority 2000, dated 2005)

Tests used:
human skin [1] = assay: Erythema and pigmentation on human forearm after topical cream and black light (Example 4, Experiment B); format: in vivo; conditions: for erythema: high doses: drug 20%, light 3 min, cream applied 4 hours
Procedure: ALA and ALA derivatives in cream was applied to different areas on the forearm of a person. Four hours afterwards the cream was removed and the arm was exposed to black light, 380 nm, for 1-5 min. The skin of the arm was examined for two weeks.

human skin [2] = assay: Erythema on human hands after topical cream and blacklight exposure (Example 2); format: in vivo; conditions: 20% in Unguentum Merck cream, 5 hours on hands, blacklight 350-400 nm for 5 min or 1 min
Procedure: A high concentration of ALA and ALA-methyl ester (20%, Sigma) in a cream (Unguentum Merck) was applied to a circular area of 1 cm diameter for 5 hours on both hands of a person, FIGS. 1(A, B). A means ALA, M means ALA-methyl ester. The areas of application are shown by the dotted circles on the figure. The cream with the drugs were carefully washed away and the areas were exposed to ordinary blacklight from a fluorescence tube. The wavelengths of the light fall within the region 350-400 nm, FIG. 2. An exposure of 5 minutes was given to the left hand and an exposure of 1 minute was given to the right hand.

SKH1 hairless mouse = assay: Prevention of UV-induced skin cancer by multiple topical ALA-Me PDT sessions (Example 8); format: in vivo
Procedure: The ability of multiple photodynamic therapy (PDT) sessions with topical ALA methylester (ALA-Me) to prevent skin cancer induced by ultraviolet radiation (UV) was studied in the SKH1 hairless mouse. Groups of 20 mice were exposed 5 days per week to UV from FS20 tubes. One group was treated weekly with 8% topical ALA-Me followed 2 hours later by 1.2 J/cm^2 of light from a slide projector, The number, location, and size of skin tumors were registered weekly. Other study groups included: mice treated with 8% ALA-Me and not exposed to light, mice exposed to UV and vehicle, mice exposed to topical ALA-Me and light but not UV, as well as mice exposed to UV with half of their bodies treated with 8% ALA-Me and half of their bodies treated with the vehicle. […] After 26 weeks of UV exposure large tumors (≧4 mm) were present in 14 mice of the UV group as compared to only one mouse in the UV-ALA-Me group.

[3] = test system: skin of C3H/Tif hairless mice; assay: Pigmentation of hairless mouse skin after topical drug and red laser light (Example 4, Experiment A); format: in vivo
Procedure: One hour after the application, the mice were exposed to light for 1 min (red laser light, 100 m/Wcm^2, 633 nm). […] The treatment was repeated 10 times within 2 weeks.

forearm skin of a person = assay: Erythema and PpIX fluorescence on forearm skin after topical cream and UVA light (Example 7); format: in vivo, human; conditions: for content of PpIX produced in the skin areas (fluorescence emission spectra): 20% cream on forearm; for erythema: 20% cream, UVA black light 5 min two hours after application, observed 24 hours later
Procedure: A cream (Unguentum, Merck) containing 20% ALA, ALA butyl ester and ALA hexyl ester respectively, was applied on three separate areas on the skin of the forearm of a person. Two hours later the skin areas were exposed to UVA light from a black light lamp for 5 min.
The content of PpIX produced in the skin areas was assessed by measuring the fluorescence emission spectra.

skin of nude BALB/c mice = assay: Localization of PpIX fluorescence on skin of nude mice under UV lamp (Example 6)
[4] = PpIX concentration in plasma after topical application in mice (Example 5); format: in vivo, mouse; conditions: 20 hr after topical application of 20% cream
Procedure: A cream was prepared using 20% (wt/wt) ALA, ALA-Me or ALA-Hex in an ointment (Unguentum, Merck, Darmstadt, Germany). Approximately 0.2 mg of the freshly prepared cream was applied on a single spot of 1 cm diameter on normal skin of each mouse. An adhesive dressing (OpSite Flexigrid, Smith and Nephew Medical, LTD, Hull, England) with a punched hole of 1 cm in diameter was first put on the skin. Then the cream was applied on the skin in the punched hole and covered with another similar dressing. 20 hours application time was used.
Female Balb/c athymic nude mice were obtained from Bomholt Gaard (Ry, Denmark). At the start of each experiment, they were 7-8 weeks old and weighed 18-25 g. Three mice were housed per cage with autoclaved filter covers in a room with subdued light at constant temperature (24-26° C.) and humidity (30-50%). Food and bedding were sterilized and the mice were given tap water ad libitum in sterilized bottles. For proper application of the cream, anaesthesia, hypnorm dormicum (approximately 4 ml/kg body weight), was i.p. injected into the mice.
Immediately after mice were killed, whole blood was drawn directly from the right atrium of the heart. The total volume of blood obtained from each mouse was approximately 0.2 ml and was selected in EDTA-treated micro-tubes. The red blood cells were fluorimetrically determined as described above.

Balb/c athymic nude mice = assay: Tissue distribution of PpIX fluorescence after topical application in mice (Example 5); format: in vivo, mouse; conditions: 20% cream topical, compared to ALA methyl ester
Procedure: ALA, ALA methyl ester and ALA hexyl ester containing cream was applied locally on the skin surface of hairless mice. Fluorescence intensities were used as indications of the concentration of PpIX on the application site (skin), in remote skin spots, in liver, intestine, lungs, muscle and brain and plasma.
A cream was prepared using 20% (wt/wt) ALA, ALA-Me or ALA-Hex in an ointment (Unguentum, Merck, Darmstadt, Germany). Approximately 0.2 mg of the freshly prepared cream was applied on a single spot of 1 cm diameter on normal skin of each mouse. An adhesive dressing (OpSite Flexigrid, Smith and Nephew Medical, LTD, Hull, England) with a punched hole of 1 cm in diameter was first put on the skin. Then the cream was applied on the skin in the punched hole and covered with another similar dressing. […]
Female Balb/c athymic nude mice were obtained from Bomholt Gaard (Ry, Denmark). At the start of each experiment, they were 7-8 weeks old and weighed 18-25 g. Three mice were housed per cage with autoclaved filter covers in a room with subdued light at constant temperature (24-26° C.) and humidity (30-50%). […]
The method for determining the amounts of PpIX in tissues was described previously (Ma et al., 1998). […] Levels of PpIX in the supernatants were quantitatively determined by recording fluorescence emission spectra of the samples using a Perkin-Elmer (Norwalk, Conn.) LS 50B spectrofluorimeter. […]

naked mice = conditions: topical ALA, simulated solar UV radiation; cited from earlier work

COC(=O)CCC(=O)CN [ALA methyl ester, 5-aminolevulinic acid methyl ester]
erythema (human skin [1]): led to erythema
erythema spreading out from the area of application (human skin [2]): only in a half-circle in the upper part of the hand
delay in tumor appearance, half body ALA-Me and half body vehicle (SKH1 hairless mouse; UV-exposed mice treated on one side with 8% ALA-Me, other side vehicle): observed only on the side treated with ALA-Me
number of mice with large tumors (≧4 mm) (SKH1 hairless mouse; after 26 weeks of UV exposure, groups of 20 mice): one
protoporphyrin IX accumulation in tumors versus adjacent UV exposed skin and normal skin (SKH1 hairless mouse; in vivo fluorescence spectroscopy and fluorescence microscopy at the time of light exposure): preferential accumulation of protoporhyrin IX in tumors
mortality or morbidity (SKH1 hairless mouse; topical ALA-Me-PDT): without increasing mortality or morbidity
time when the first tumor appeared (SKH1 hairless mouse; weekly 8% topical ALA-Me plus 1.2 J/cm^2 light, compared to mice only exposed to UV): significant delay
skin pigmentation ([3]; 1% cream, 1 min red laser light, repeated 10 times within 2 weeks): gradually pigmented
erythema ([3]; 1% in Unguentum Merck cream, light 1 min (633 nm) one hour after application): No erythema was observed

CCCCOC(=O)CCC(=O)CN [ALA butyl ester]
content of PpIX produced in the skin areas (fluorescence emission spectra) (forearm skin of a person): smaller
erythema (forearm skin of a person): significant but weaker erythema

CCCCCCOC(=O)CCC(=O)CN [ALA hexyl ester, 5-aminolevulinic acid hexyl ester]
content of PpIX produced in the skin areas (fluorescence emission spectra) (forearm skin of a person): smallest
erythema (forearm skin of a person): significant but weaker erythema

NCC(=O)CCC(=O)O [ALA, 5-aminolevulinic acid]
pigmentation (human skin [1]; 20% ALA, 1 min light (slightly erythemogenic), 2 weeks after light exposure): led to later pigmentation
erythema (human skin [1]): led to erythema
pigmentation (melanogenesis) (human skin [1]; one week after a low dose single nonerythemogenic treatment): clearly visible pigmentation (melanogenesis)
content of PpIX produced in the skin areas (fluorescence emission spectra) (forearm skin of a person): highest concentration of PpIX
erythema (forearm skin of a person): significant pronounced erythema
localization of protoporphyrin IX (PpIX) fluorescence (skin of nude BALB/c mice; 20% cream, photos under UV lamp after 8 hours): localized all over the skin
site of PpIX production after application on the skin of mice (summary statement) (skin of nude BALB/c mice; applied on the skin of mice): induces PpIX in the whole mouse
concentration in plasma [4]: higher than both ALA methylester and ALA hexylester
PpIX outside the application site (Balb/c athymic nude mice; 5 hrs application time): significally more PpIX outside the application site
PpIX outside the application site (Balb/c athymic nude mice; 20 hrs application time): significally more PpIX outside the application site
erythema spreading out from the area of application (human skin [2]): circular, covering both the upper and the lower part of the hand
UV induction of skin cancer (naked mice): photo-induced carcinogenesis was delayed
skin reaction of exposed areas (naked mice): erythematous
